Key:
[1] = target: wild-type human cardiac sodium channel, hNav1.5 (Homo sapiens, UniProt Q14524); assay: Late INa screening assay (PatchXpress whole cell patch clamp, late current generated with Tefluthrin or ATX II); type: cell-based; conditions: for inhibition at 10 µM / Late INa % blk: test compound at 10 μM; for inhibition at 10 µM: read-out: Late INa % blk; for effect on late sodium current: late INa assay, compounds tested at 10 μM
Description: The late sodium current (Late INa) and peak sodium current (Peak INa) assays are performed on an automated electrophysiology platform, PatchXpress 7000A (MDS Analytical Technologies, Sunnyvale, Calif.), which uses the whole cell patch clump technique to measure currents through the cell membrane of up to 16 cells at a time. The assay uses an HEK293 (human embryonic kidney) cell line heterologously expressing the wild-type human cardiac sodium channel, hNav1.5, purchased from Millipore (Billerica, Mass.). No beta subunits were coexpressed with the Na channel alpha subunit. […] Experiments are carried out at 24-27° C.
For both the Late INa and Peak INa assays, series resistance compensation is set to 50% and whole-cell compensation is performed automatically. […] Currents through open sodium channels are automatically recorded and stored in the DataXpress2 database (MDS Analytical Technologies, Sunnyvale, Calif.). Analysis is performed using DataXpress2 analysis software and data are compiled in Excel.
Compound stocks are routinely made in glass vials to 10 mM in dimethyl sulfoxide (DMSO). In some cases, when compounds are not soluble in DMSO, they are made in 100% ethanol. Stocks are sonicated as necessary. The extracellular solution for screening Late INa is composed of: 140 mM NaCl, 4 mM KCl, 1.8 mM CaCl2, 0.75 mM MgCl2, and 5 mM HEPES with pH adjusted to 7.4 using NaOH. The extracellular solution for screening Peak INa is composed of: 20 mM NaCl, 120 mM N-methyl-D glucamine, 4 mM KCl, 1.8 mM CaCl2, 0.75 mM MgCl2, and 5 mM HEPES with pH adjusted to 7.4 using HCl. The intracellular solution used to perfuse the inside of the cells for both the Late INa and Peak INa assays contains: 120 mM CsF, […], 5 mM EGTA, 5 mM HEPES and pH adjusted to 7.4 with CsOH. […] The ONa extracellular solution used at the end of each experiment for the Late INa and Peak INa assays to measure baseline current contains: 140 mM N-methyl-D-glucamine; 4 mM KCl; 1.8 mM CaCl2; 0.75 mM MgCl2; 5 mM HEPES and pH was adjusted to 7.4 with HCl.
For the Late INa assay, sodium channels are activated every 10 seconds (0.1 Hz) by depolarizing the cell membrane to −20 mV for 250 milliseconds (ms) from a holding potential of −120 mV.
All compounds are tested to determine their activity in blocking the late sodium current. Late INa current is generated by adding 10 μM Tefluthrin (pyrethroid) to the extracellular solution while recording Na currents. […] For some experiments, 50 nM ATX II (sea anemone toxin), another late INa activator, was used to generate the late component. […] Baseline current in the absence of Na^+ ions is measured at the end of each experiment (after two additions of 0 Na solution—see above) and is used to calculate the percent block by compound.

hERG potassium channel = hERG potassium channel (Homo sapiens, UniProt Q12809); assay: hERG screening assay (PatchXpress patch clamp, CHO cells)
L-type calcium channel = L-type calcium channel activity well-plate assay (IMR-32 cells, Ca-4 dye, FlexStation); type: cell-based, human
Description: Cell Culture: IMR-32 (human neuroblastoma) cells were obtained from The American Type Culture Collection. The cells were maintained in MEM supplemented with 10% fetal bovine serum, 2 mM of L-glutamine, 100 IU/ml of penicillin, 50 μg/ml of streptomycin, 1% of sodium pyruvate, 1% of sodium bicarbonate and 1% of non-essential amino acid. […] Culture medium was changed every two days and cells were recultivated when they reached 70-80% confluent.
Assay: IMR-32 cells were seeded on a Microtest 96-well Assay Plate (BD FALCON™) at a density of 200,000 cells/well in 200 μl culture medium for overnight. The culture medium was removed, and replaced by 120 μl Ca-4 dye (MDS Analytical Technologies, Sunnyvale, Calif.) in HBSS (1× Hank's Balanced Salt solution plus 20 mM HEPES, pH 7.4) containing 2 mM probenecid. Cells were then incubated for 1 hour at 37° in incubator. Testing compounds were diluted from 5 μM-50 μM in HBSS, and 40 μl were added in cells before assay. […] The inhibition of L-type calcium channel activity by compounds was then calculated.

hERG potassium channel, sequence (Q12809 whole entry): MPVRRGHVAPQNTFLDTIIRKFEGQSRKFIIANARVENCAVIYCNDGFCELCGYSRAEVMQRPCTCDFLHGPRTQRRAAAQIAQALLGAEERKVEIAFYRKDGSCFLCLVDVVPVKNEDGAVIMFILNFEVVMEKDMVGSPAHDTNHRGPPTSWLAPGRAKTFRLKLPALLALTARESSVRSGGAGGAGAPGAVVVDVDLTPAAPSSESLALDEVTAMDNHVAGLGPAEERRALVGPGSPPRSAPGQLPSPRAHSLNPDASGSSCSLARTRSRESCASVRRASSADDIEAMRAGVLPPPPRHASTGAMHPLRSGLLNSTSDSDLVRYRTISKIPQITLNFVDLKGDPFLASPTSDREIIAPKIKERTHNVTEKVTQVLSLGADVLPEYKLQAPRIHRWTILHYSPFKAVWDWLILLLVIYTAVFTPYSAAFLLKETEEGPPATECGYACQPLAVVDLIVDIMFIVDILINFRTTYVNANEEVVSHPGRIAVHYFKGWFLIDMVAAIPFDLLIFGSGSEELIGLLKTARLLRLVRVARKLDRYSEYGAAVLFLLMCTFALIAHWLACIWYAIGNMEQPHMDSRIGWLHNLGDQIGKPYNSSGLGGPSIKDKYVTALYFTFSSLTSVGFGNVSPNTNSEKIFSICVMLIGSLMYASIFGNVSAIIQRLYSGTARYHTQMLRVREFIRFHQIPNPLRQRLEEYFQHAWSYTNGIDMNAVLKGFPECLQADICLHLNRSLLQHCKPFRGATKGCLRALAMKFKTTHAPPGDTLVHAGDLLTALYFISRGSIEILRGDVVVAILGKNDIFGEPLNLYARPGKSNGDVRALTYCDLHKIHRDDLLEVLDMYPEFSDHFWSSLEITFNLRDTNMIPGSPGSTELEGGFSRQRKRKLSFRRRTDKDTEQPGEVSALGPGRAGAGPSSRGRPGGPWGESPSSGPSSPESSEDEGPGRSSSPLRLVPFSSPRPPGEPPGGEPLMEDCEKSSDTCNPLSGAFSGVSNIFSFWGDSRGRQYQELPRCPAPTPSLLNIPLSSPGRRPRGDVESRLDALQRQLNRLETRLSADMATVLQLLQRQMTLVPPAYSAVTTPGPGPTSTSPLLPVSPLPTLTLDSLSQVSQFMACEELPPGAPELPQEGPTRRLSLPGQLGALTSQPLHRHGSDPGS
wild-type human cardiac sodium channel, hNav1.5, sequence (Q14524 whole entry): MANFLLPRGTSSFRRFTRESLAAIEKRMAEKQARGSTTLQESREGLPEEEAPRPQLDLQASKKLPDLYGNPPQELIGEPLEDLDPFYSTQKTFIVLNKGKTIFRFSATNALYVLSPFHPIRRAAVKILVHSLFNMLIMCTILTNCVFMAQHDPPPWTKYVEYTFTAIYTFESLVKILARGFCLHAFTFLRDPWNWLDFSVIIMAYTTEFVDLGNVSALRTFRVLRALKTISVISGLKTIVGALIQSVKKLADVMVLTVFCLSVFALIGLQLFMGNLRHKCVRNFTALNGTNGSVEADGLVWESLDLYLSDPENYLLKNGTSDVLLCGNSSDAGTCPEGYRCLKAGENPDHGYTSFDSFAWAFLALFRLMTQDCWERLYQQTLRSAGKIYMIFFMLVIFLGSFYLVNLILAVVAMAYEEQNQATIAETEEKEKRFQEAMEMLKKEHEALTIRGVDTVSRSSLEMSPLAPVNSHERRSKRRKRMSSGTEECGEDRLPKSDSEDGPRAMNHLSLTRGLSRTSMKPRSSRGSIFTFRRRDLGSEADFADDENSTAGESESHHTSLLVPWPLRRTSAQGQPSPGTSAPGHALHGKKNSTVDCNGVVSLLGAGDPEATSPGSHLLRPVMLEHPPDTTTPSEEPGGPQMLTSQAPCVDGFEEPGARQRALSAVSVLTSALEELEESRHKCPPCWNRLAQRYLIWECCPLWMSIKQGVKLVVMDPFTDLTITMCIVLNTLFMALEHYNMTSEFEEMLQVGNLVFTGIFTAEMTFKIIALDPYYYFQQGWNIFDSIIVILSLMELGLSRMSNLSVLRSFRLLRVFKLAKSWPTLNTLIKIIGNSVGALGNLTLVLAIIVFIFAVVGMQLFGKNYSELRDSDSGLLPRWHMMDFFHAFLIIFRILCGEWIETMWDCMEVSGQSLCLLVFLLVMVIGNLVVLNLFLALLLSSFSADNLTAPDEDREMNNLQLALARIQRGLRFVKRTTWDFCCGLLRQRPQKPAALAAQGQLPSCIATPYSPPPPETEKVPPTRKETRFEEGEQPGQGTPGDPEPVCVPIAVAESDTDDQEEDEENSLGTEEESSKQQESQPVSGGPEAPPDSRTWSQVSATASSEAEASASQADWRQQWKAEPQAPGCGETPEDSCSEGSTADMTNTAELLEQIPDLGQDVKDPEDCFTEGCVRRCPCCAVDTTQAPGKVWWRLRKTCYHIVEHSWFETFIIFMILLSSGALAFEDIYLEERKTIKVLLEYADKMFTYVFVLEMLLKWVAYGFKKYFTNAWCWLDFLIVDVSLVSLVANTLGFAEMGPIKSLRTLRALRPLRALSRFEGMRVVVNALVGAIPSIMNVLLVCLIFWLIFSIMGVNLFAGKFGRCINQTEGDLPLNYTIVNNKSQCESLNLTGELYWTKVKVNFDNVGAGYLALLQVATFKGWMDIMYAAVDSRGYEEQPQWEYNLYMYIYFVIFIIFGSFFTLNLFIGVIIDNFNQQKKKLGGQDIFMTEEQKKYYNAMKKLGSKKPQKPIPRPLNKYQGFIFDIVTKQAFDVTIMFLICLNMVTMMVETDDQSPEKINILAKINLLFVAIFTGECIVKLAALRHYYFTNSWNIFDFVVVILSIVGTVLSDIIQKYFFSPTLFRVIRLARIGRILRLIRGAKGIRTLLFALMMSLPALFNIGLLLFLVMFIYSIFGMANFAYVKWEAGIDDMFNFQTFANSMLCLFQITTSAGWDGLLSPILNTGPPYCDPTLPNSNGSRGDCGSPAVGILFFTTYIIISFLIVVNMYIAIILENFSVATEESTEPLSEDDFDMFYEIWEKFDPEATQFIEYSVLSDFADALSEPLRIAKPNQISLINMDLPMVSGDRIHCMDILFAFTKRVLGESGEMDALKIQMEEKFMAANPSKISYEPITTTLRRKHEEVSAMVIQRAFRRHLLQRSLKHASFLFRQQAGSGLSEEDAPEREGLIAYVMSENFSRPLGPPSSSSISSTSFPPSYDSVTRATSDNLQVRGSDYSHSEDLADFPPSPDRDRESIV

Q: CC1=C(C(=O)O[C@@H](C)c2ccccc2)C(c2cc3ccccc3s2)n2nnnc2N1 (stereo partly drawn) [PT-057, (S)-1-phenylethyl 7-(benzo[b]thiophen-2-yl)-5-methyl-4,7-dihydrotetrazolo[1,5-a]pyrimidine-6-carboxylate] was tested. Which inhibition at 10 µM [1] did it give?
A: Its inhibition at 10 µM is 71%.

Q: Which “hERG Patch Clamp hERG % blk (1 μM test cmpd)” value (hERG potassium channel) does the source give for CC1=C(C(=O)O[C@@H](C)c2ccccc2)C(c2cc3ccccc3o2)n2nnnc2N1 (stereo partly drawn) [PT-059, (S)-1-phenylethyl 7-(benzofuran-2-yl)-5-methyl-4,7-dihydrotetrazolo[1,5-a]pyrimidine-6-carboxylate] here?
A: The value was 10%.

Q: And the “hERG Patch Clamp hERG % blk (10 μM test cmpd)” value (hERG potassium channel)?
A: Its value is 66.5%.

Q: And the “Late INa % blk” value [1]?
A: The value was 57.7%.

Q: CCOC(=O)C1=C(C)NC(C)=C(C(=O)OCC)C1c1ccc2c(c1)OCCO2 [PT-109, diethyl 4-(2,3-dihydrobenzo[b][1,4]dioxin-6-yl)-2,6-dimethyl-1,4-dihydropyridine-3,5-dicarboxylate] was tested. Which “hERG Patch Clamp hERG % blk (1 μM test cmpd)” value (hERG potassium channel) did it give?
A: Its value is 16%.

Q: And the “hERG Patch Clamp hERG % blk (10 μM test cmpd)” value (hERG potassium channel)?
A: Its value is 38.5%.

Q: And the inhibition at 10 µM [1]?
A: The inhibition at 10 µM was 76.5%.

Q: And the “CaL Plate Assay % blk (1 μM test cmpd)” value (L-type calcium channel)?
A: Its value is 4%.

Q: What about the “CaL Plate Assay % blk (10 μM test cmpd)” value (L-type calcium channel) of the same compound?
A: Its value is 53%.

Q: How did the inhibition at 10 µM [1] turn out when CC1=C(C(=O)OC(C)C)C(c2c[nH]nc2-c2ccc(F)cc2)C(C(=O)OC(C)C)=C(C)N1 [PT-128, diisopropyl 4-(3-(4-fluorophenyl)-1H-pyrazol-4-yl)-2,6-dimethyl-1,4-dihydropyridine-3,5-dicarboxylate] was run?
A: The inhibition at 10 µM was 34.1%.

Q: With CC1=C(C(=O)N2CCC(c3ccccc3)CC2)C(c2ccsc2)C2=C(CCCC2=O)N1 (stereo not shown) [PT-163, 2-methyl-3-(4-phenylpiperidine-1-carbonyl)-4-(thiophen-3-yl)-4,6,7,8-tetrahydroquinolin-5(1H)-one] as the compound, how does the “hERG Patch Clamp hERG % blk (1 μM test cmpd)” value (hERG potassium channel) read?
A: The value was 15%.

Q: And the “hERG Patch Clamp hERG % blk (10 μM test cmpd)” value (hERG potassium channel)?
A: Its value is 53.5%.

Q: And the “effect on late sodium current” value [1]?
A: Its value is “potentiated late sodium current”.

Q: What about the “CaL Plate Assay % blk (1 μM test cmpd)” value (L-type calcium channel) of the same compound?
A: The value was 5%.

Q: And the “CaL Plate Assay % blk (10 μM test cmpd)” value (L-type calcium channel)?
A: The value was 17%.

Q: Which results are given for CC1=C(C(=O)N2CCN(c3ccccc3)CC2)C(c2ccc3ccccc3c2)C2=C(CCCC2=O)N1 (stereo not shown) [PT-165, 2-methyl-4-(naphthalen-2-yl)-3-(4-phenylpiperazine-1-carbonyl)-4,6,7,8-tetrahydroquinolin-5(1H)-one]?
A: hERG Patch Clamp hERG % blk (1 μM test cmpd) (hERG potassium channel): 30.5%; hERG Patch Clamp hERG % blk (10 μM test cmpd) (hERG potassium channel): 64.5%; effect on late sodium current [1]: potentiated late sodium current; CaL Plate Assay % blk (1 μM test cmpd) (L-type calcium channel): 0%; CaL Plate Assay % blk (10 μM test cmpd) (L-type calcium channel): 2%

Q: For CC1=C(C(=O)N2CCN(c3ccccc3)CC2)C(c2ccsc2)C2=C(CCCC2=O)N1 (stereo not shown) [PT-166, 2-methyl-3-(4-phenylpiperazine-1-carbonyl)-4-(thiophen-3-yl)-4,6,7,8-tetrahydroquinolin-5(1H)-one], which “effect on late sodium current” value [1] is on record?
A: The value was “potentiated late sodium current”.

Q: With CC1=C(C(=O)Nc2c(C)cccc2C)C(c2ccsc2)C2=C(CCCC2=O)N1 (stereo not shown) [PT-180, N-(2,6-dimethylphenyl)-2-methyl-5-oxo-4-(thiophen-3-yl)-1,4,5,6,7,8-hexahydroquinoline-3-carboxamide] as the compound, how does the inhibition at 10 µM [1] read?
A: The inhibition at 10 µM was -4.7%.

Q: For CC1=C(C(=O)OCCc2nnn[nH]2)C(c2cccc3ccccc23)n2nnnc2N1 (stereo not shown) [PT-247, 2-(1H-tetrazol-5-yl)ethyl 5-methyl-7-(naphthalen-1-yl)-4,7-dihydrotetrazolo[1,5-a]pyrimidine-6-carboxylate], which inhibition at 10 µM [1] is on record?
A: Its inhibition at 10 µM is 0.3%.

Q: CC1=C(C(=O)N2CCC(c3ccc(C(N)=O)cc3)CC2)C(c2cccc3ccccc23)C2=C(CCCC2=O)N1 (stereo not shown) [PT-287, 4-(1-(2-methyl-4-(naphthalen-1-yl)-5-oxo-1,4,5,6,7,8-hexahydroquinoline-3-carbonyl)piperidin-4-yl)benzamide] was tested. Which inhibition at 10 µM [1] did it give?
A: Its inhibition at 10 µM is 8.6%.

Q: For COC(=O)C1=C(C)Nc2nnnn2C1c1ccccc1 (stereo not shown) [PT-514, methyl 5-methyl-7-phenyl-4,7-dihydrotetrazolo[1,5-a]pyrimidine-6-carboxylate], which inhibition at 10 µM [1] is on record?
A: Its inhibition at 10 µM is 6%.

Q: Which “hERG Patch Clamp hERG % blk (1 μM test cmpd)” value (hERG potassium channel) does the source give for CC1=C(C(=O)OCc2ccccc2)C(c2ccccc2-c2ccc(NS(C)(=O)=O)cc2)n2nnnc2N1 (stereo not shown) [PT-530, benzyl 5-methyl-7-(4′-(methylsulfonamido)biphenyl-2-yl)-4,7-dihydrotetrazolo[1,5-a]pyrimidine-6-carboxylate] here?
A: The value was 13%.

Q: And the “hERG Patch Clamp hERG % blk (10 μM test cmpd)” value (hERG potassium channel)?
A: Its value is 48%.

Q: And the inhibition at 10 µM [1]?
A: Its inhibition at 10 µM is 88.3%.

Q: With CC1=C(C(=O)OCc2ccccc2Br)C(c2c(Cl)cccc2Cl)n2nnnc2N1 (stereo not shown) [PT-531, 2-bromobenzyl 7-(2,6-dichlorophenyl)-5-methyl-4,7-dihydrotetrazolo[1,5-a]pyrimidine-6-carboxylate] as the compound, how does the inhibition at 10 µM [1] read?
A: The inhibition at 10 µM was 51.2%.

Q: With CC1=C(C(=O)OCc2ccccc2Br)C(c2c(Cl)cccc2Cl)n2nnnc2N1Cc1nnn[nH]1 (stereo not shown) [PT-532, 2-bromobenzyl 4-((1H-tetrazol-5-yl)methyl)-7-(2,6-dichlorophenyl)-5-methyl-4,7-dihydrotetrazolo[1,5-a]pyrimidine-6-carboxylate] as the compound, how does the inhibition at 10 µM [1] read?
A: Its inhibition at 10 µM is 35.6%.

Q: How did the “Late INa % blk” value [1] turn out when COC(=O)C1=C(C)N(CC(=O)O)c2nnnn2C1c1sc2ccccc2c1Br (stereo not shown) [PT-533, 2-(7-(3-bromobenzo[b]thiopben-2-yl)-6-(methoxycarbonyl)-5-methyltetrazolo[1,5-a]pyrimidin-4(7H)-yl)acetic acid] was run?
A: Its value is 12%.

Q: Which inhibition at 10 µM [1] does the source give for COC(=O)C1=C(C)N(Cc2nnn[nH]2)c2nnnn2C1c1sc2ccccc2c1Br (stereo not shown) [PT-534, methyl 4-((1H-tetrazol-5-yl)methyl)-7-(3-bromobenzo[b]thiophen-2-yl)-5-methyl-4,7-dihydrotetrazolo[1,5-a]pyrimidine-6-carboxylate] here?
A: The inhibition at 10 µM was 18.2%.

Q: With COC(=O)c1ccc(C2CCN(C(=O)C3=C(C)NC4=C(C(=O)CCC4)C3c3cccc4ccccc34)CC2)cc1 (stereo not shown) [PT-535, methyl 4-(1-(2-methyl-4-(naphthalen-1-yl)-5-oxo-1,4,5,6,7,8-hexahydroquinoline-3-carbonyl)piperidin-4-yl)benzoate] as the compound, how does the inhibition at 10 µM [1] read?
A: Its inhibition at 10 µM is 4.2%.

Q: For “H-furo[3,4-e]pyrazolo[3,4-b]pyridin-5(4H)-one [PT-079]”, which “hERG Patch Clamp hERG % blk (1 μM test cmpd)” value (hERG potassium channel) is on record?
A: The value was 57.5%.

Q: And the “hERG Patch Clamp hERG % blk (10 μM test cmpd)” value (hERG potassium channel)?
A: The value was 96.5%.

Q: What about the “Late INa % blk” value [1] of the same compound?
A: Its value is 49%.

Q: How did the “Late INa % blk” value [1] turn out when “H-indol-5-yl)phenyl)-5-methyl-4,7-dihydrotetrazolo[1,5-a]pyrimidine-6-carboxylate [PT-505]” was run?
A: The value was 69.6%.
